Test results: US11938103B2, “Potentiation of helminth treatment” (Elanco Tiergesundheit AG, priority 2018, dated 2024)

What was measured:
Fasciola hepatica = conditions: cited from earlier work
[1] = system: Fasciola hepatica (early immature stage); assay: Efficacy against early immature stage F. hepatica infection in sheep (Example 3); assay type: in vivo; conditions: single oral dose day 14, livers day 91, diamphenethide 20 mg/kg, clorsulon 10 mg/kg, combination 20 and 10 mg/kg; for % Efficacy using Arithmetic mean / % Efficacy using Geometric Mean: vs untreated control
Method: (§1) Doses were administered orally from suitably sized disposable syringes.
(§2) The fluke counts and body weights were log-transformed (after adding a constant of 1 to the fluke counts only) and the distribution of the transformed data checked to see if they satisfied the assumption of normal distribution.
(§3) Arithmetic means (Amean), geometric means (Gmean), median and ranges were summarized for fluke counts, fluke measurements and bodyweight. A constant of one was applied for calculation of geometric means of fluke counts.
(§4) The percentage efficacy for each treated group was calculated as follows: % Efficacy=100×(FCC−FCT)/FCC where FCC is the arithmetic mean fluke count of the control group and FCT is the arithmetic mean fluke count of the treated group. The formula was also applied using mean geometric fluke counts; these were calculated using log transformed data with 1 added as a constant to each fluke count and then subtracted following transformation.
(§5) Note that expected synergy is defined as: 1−Efficacy(expected without synergy)=(1−EfficacyD)×(1−EfficacyC).
This study was to assess the efficacy of diamphenethide (20 mg/kg) given concurrently with clorsulon (10 mg/kg), diamphenethide alone (20 mg/kg), and clorsulon alone (10 mg/kg) against F. hepatica in sheep with treatment on day 14. This was a controlled, blinded, randomized study using sheep.
On day 0, the sheep were experimentally infected with a target of 200 “Sunny Corner” (laboratory strain reference Fashep-66) F. hepatica metacercariae. The required number of metacercariae were prepared for infection in a water and 2% carboxymethylcellulose solution. Each infective dose was followed by water administered orally.
The sheep were randomized into treatment groups on the basis of day 13 body weight and allocated to groups as denoted in Table 3.1. Animals were treated on day 14 with a single dose as noted in Table 3.1.
Body weight was determined one day prior to treatments, which were measured by volume and rounded to the nearest 0.1 mL. On day 14, and before feeding, the individual animals were treated once only with the Treatment in Table 3.1. […] Untreated control animals were also fed at this time.
The liver with gall bladder and common bile duct intact were recovered on day 91 from each animal and processed for F. hepatica counts. The assessment of efficacy was based on the number of live fluke removed from the liver.
An ANOVA model was used to compare fluke counts between treatment groups. The model was applied to the log-transformed counts. There was one fixed effect, treatment group.

[2] = system: Fasciola hepatica (early immature stage); assay: Efficacy against early immature stage F. hepatica infection in cattle (Example 5); assay type: in vivo; conditions: single oral dose day 21, livers day 91 or 92, diamphenethide 40 mg/kg, clorsulon 7 mg/kg, combination 40 and 7 mg/kg; for % Efficacy using Arithmetic mean / % Efficacy using Geometric Mean: vs untreated control
Method: as §1, §2, §3, §4, §5
This study was to assess the efficacy of diamphenethide (40 mg/kg) given concurrently with clorsulon (7 mg/kg), diamphenethide alone (40 mg/kg), and clorsulon alone (7 mg/kg) against F. hepatica in cattle with treatment on day 21. This was a controlled, blinded, randomized study.
(§6) On day 0, the calves were experimentally infected with a single isolate of approximately 350 Sunny Corner (Fashep-66) isolate F. hepatica metacercariae. The required number of metacerceriae were made up in 2% carboxymethyl cellulose. Syringes were checked post-infection for retained metacerceriae. The infection was administered orally and each infective dose was followed by water administered orally. The cattle were randomized into treatment groups on the basis of day 20 body weight and allocated to groups as denoted in Table 5.1.
Body weight was determined one day prior to treatment. All treatments were measured by volume and rounded to the nearest 0.1 mL. On day 21, and before feeding, the individual animals were treated once only with the treatment in Table […]. […] Untreated control animals were also fed at this time.
(§7) The liver with gall bladder and bile ducts intact were recovered from each animal on day 91 or 92 and processed for F. hepatica counts. The assessment of efficacy was based on the number of live fluke removed from the liver.

[3] = system: Fasciola hepatica (immature stage); assay: Efficacy against immature stage F. hepatica infection in cattle (Example 4); assay type: in vivo; conditions: single oral dose day 49, livers day 91 or 92, diamphenethide 60 mg/kg, clorsulon 5 mg/kg, combination 60 and 5 mg/kg; for % Efficacy using Arithmetic mean / % Efficacy using Geometric Mean: vs untreated control
Method: as §1, §2, §3, §4, §5
This study was to assess the efficacy of diamphenethide (60 mg/kg) given concurrently with clorsulon (5 mg/kg), diamphenethide alone (60 mg/kg), and clorsulon alone (5 mg/kg) against F. hepatica in cattle with treatment on day 49. This was a controlled, blinded, randomized study.
as §6, with “382” for “350”, “48” for “20”, “4.1.” for “5.1.”
Body weight was determined one day prior to treatment. All treatments were measured by volume and rounded to the nearest 0.1 mL. On day 49, and before feeding, the individual animals were treated once only with the treatment in Table 4.1. […] Untreated control animals were also fed at this time.
as §7

liver flukes = conditions: cited from earlier work
[4] = system: Fasciola hepatica (immature stage); assay: Efficacy against immature stage F. hepatica infection in sheep (Example 2); assay type: in vivo; conditions: single oral dose day 42, livers day 91, diamphenethide 40 mg/kg, clorsulon 3.5 mg/kg, combination 40 and 3.5 mg/kg; for % Efficacy using Arithmetic mean / % Efficacy using Geometric Mean: vs untreated control
Method: In the following examples, all animals were confirmed free of infection with F. hepatica and found clinically healthy by a veterinarian prior to enrollment in the study. Doses were administered orally from suitably sized disposable syringes. […] Differences between treatment groups were analyzed by analysis of variance methods (ANOVA), as the assumptions of normal distribution were satisfied for log-transformed fluke count and log-transformed bodyweight, as well as for (untransformed) fluke measurements. Arithmetic […]), geometric […]), median and ranges were summarized for fluke counts, fluke measurements and bodyweight. A constant of one was applied for calculation of geometric means of fluke counts. […] On day 0, the sheep were experimentally infected with a target of 200 “Sunny Corner” (laboratory strain reference […]. hepatica […]. The required number of […] prepared for infection in a water and 4% carboxymethylcellulose solution. Each infective dose was followed by water administered orally. Syringes were subsequently checked post-infection for retained […] was determined that the sheep were administered between 93.5% and 100% (98.3% on average) of the target infective dose. The sheep were randomized into treatment groups on the basis of day 41 body weight and allocated to groups as denoted in Table 2.1. Body weight was determined one day prior to treatments, which were measured by volume and rounded to the nearest 0.1 mL. On day 42, and before feeding, the individual animals were treated once only with the Treatment in Table 2.1. Once the animals had been treated they were returned to their pens and fed within one hour. Untreated control animals were also fed at this time. The liver with gall bladder and common bile duct intact were recovered on day 91 from each animal and processed for F. hepatica counts. The assessment of efficacy was based on the number of live fluke removed from the liver. An ANOVA model was used to compare fluke counts between treatment groups. The model was applied to the log-transformed counts. There was one fixed effect, treatment group.

[5] = deacylation to DAMD; cited from earlier work

| Structure (SMILES) | Fluke Count, Arithmetic mean [1] | Fluke Count, Geometric Mean [1] | % Efficacy using Arithmetic mean [1] | % Efficacy using Geometric Mean [1] | Fluke Count, Arithmetic mean [2] | Fluke Count, Geometric Mean [2] | % Efficacy using Arithmetic mean [2] | % Efficacy using Geometric Mean [2] | Fluke Count, Arithmetic mean [3] | Fluke Count, Geometric Mean [3] | % Efficacy using Arithmetic mean [3] | % Efficacy using Geometric Mean [3] | Fluke Count, Arithmetic mean [4] | Fluke Count, Geometric Mean [4] | % Efficacy using Arithmetic mean [4] | % Efficacy using Geometric Mean [4] | also measured |
| --- | --- | --- | --- | --- | --- | --- | --- | --- | --- | --- | --- | --- | --- | --- | --- | --- | --- |
| O=C(Nc1ccc(Oc2ccc(Cl)cc2)c(Cl)c1)c1cc(I)cc(I)c1O [rafoxanide] |  |  |  |  |  |  |  |  |  |  |  |  |  |  |  |  | Isolates showing resistance at recommended doses (Fasciola hepatica; ten of seventeen F. hepatica isolates from different geographical regions): 58.8% |
| Nc1cc(C(Cl)=C(Cl)Cl)c(S(N)(=O)=O)cc1S(N)(=O)=O [Clorsulon, 4-amino-6-(1,2,2-trichloroethenyl)benzene-1,3-disulfonamide] | 99.8 | 90.6 | 28.2% | 34.0% | 45.2 | 42.4 | 42.2% | 42.1% | 72.6 | 70.7 | 13.6% | 15.3% | 81.8 | 79.7 | 9.3% | 8.4% | Effectiveness by host species (liver flukes; cattle versus sheep): more effective in cattle than in sheep; Effectiveness against mature flukes (liver flukes; mature flukes): effective against mature flukes |
| CC(=O)Nc1ccc(OCCOCCOc2ccc(NC(C)=O)cc2)cc1 [Diamphenethide, N-[4-[2-[2-(4-acetamidophenoxy)ethoxy]ethoxy]phenyl]acetamide] | 89.0 | 87.5 | 40.0% | 36.3% | 54.2 | 53.1 | 30.7% | 27.5% | 73.8 | 61.8 | 12.1% | 26.0% | 57.6 | 50.9 | 36.1% | 41.5% | Metabolism [5]: rapidly metabolized by deacylation; Effectiveness against early immature flukes (liver flukes; early immature flukes up to 6 weeks of age): highly effective; Activity against flukes as they develop to maturity (liver flukes; flukes developing to maturity): progressively lower activity |
| Cc1cc(C(C#N)c2ccc(Cl)cc2)c(Cl)cc1NC(=O)c1cc(I)cc(I)c1O (stereo not drawn) [closantel] |  |  |  |  |  |  |  |  |  |  |  |  |  |  |  |  | Side resistance in rafoxanide-resistant F. hepatica isolates (Fasciola hepatica; F. hepatica isolates, New South Wales): side resistance to closantel was evident |
